Measurements taken from patent US20050032904A1, “Composition and use of allylamine derivatives” (priority 2003, published 2005).

Assays:
[1] = test system: p53 binding to p21/Cip1 promoter DNA, nuclear extracts of COLO 205 cells; assay: Electrophoretic mobility shift assay (EMSA); type: cell-based, human; settings: 60 μM TB
Protocol: Antisense or sense p53 was added to COLO 205 at a final concentration of 20 μM at 16 h before the cell was challenged with 10% FCS and 60 μM TB treatment for additional 15 h. […] The radio labeled DNA (4 ng, 100,000 cpm) was incubated with nuclear extract in 15 μl of binding buffer (10 mM Tris-HCl, pH 8.0, 1 mM EDTA, 10% glycerol, 200 mM NaCl, and 1 μg probe DNA) on ice for 5 min. The samples were electrophoresed in a 5% polyacrylamide gel, dried on Whatman 3M paper, and then exposed to Fuji x-ray films at -70° C.

[2] = test system: cell cycle regulatory proteins in HT 29 cells; assay: Western blot of cell cycle regulatory proteins; type: cell-based, human; settings: TB 60-150 μM, 15 h; dose-dependent
Protocol: (§1) To further test this hypothesis, the dose effects of TB on the levels of cell cycle regulatory protein were conducted in four different human cancer cell lines, COLO 205 (p53 wild type), HT 29 (p53 […] mutant), Hep 3B (p53 partial deleted) and HL 60 (p53 null). […] The cells were rendered quiescent for 24 h, and then challenged with 10% FCS and treated with various concentrations of TB (60-150 μM) for additional 15 h. Protein extracts (100 μg/lane) were separated by SDS-PAGE, probed with specific antibodies, and detected using the NBT/BCIP system. Membranes were also probed with anti-GAPDH antibody to correct for differences in protein loading. As previously described (Chen R J, et. al., Toxicology & Applied Pharmacology 2000;169(2):132-41.), the frozen tumor was pulverized in liquid N2, and then mixed with lysis buffer (Tris-HCl 0.5 M, pH 6.8, SDS 0.4%). For cell cultures, the cells were seeded onto 150-mm dishes and grown in RPMI 1640 (for COLO 205, HT 29 and HL 60 cells) or MEM (for Hep 3B) supplemented with 10% FCS. After the cells had grown to subconfluence, they were rendered quiescent. The cells were released from quiescence with culture medium supplemented with 10% FCS. TB in 0.05% DMSO or 0.05% DMSO without TB was added to the cells at various concentrations and the mixture was allowed to incubate for 17 h. Western blot analysis was performed as previously described (Chen R J, et. al., Toxicology & Applied Pharmacology 2000;169(2):132-41; Lee W S, et. al., Circulation Research 1998;82(8):845-51.). Immunodetection was carried by probing with proper dilutions of specific antibodies at room temperature for 2 h. Anti-p21/Cip1, anti-p27/Kip1, anti-p53, anti-GAPDH monoclonal antibodies (Santa Cruz, Inc. CA); anti-cyclin B1, D1, and D3, anti-cdk2 and cdk4, and PCNA monclonal antibodies (Transduction Laboratories, Lexington, Ky.) were used at a concentration of 1:1,000 dilution. Anti-cyclin A and E polyclonal antibodies (Transduction, San Diego, Calif.) were used at a concentration of 1:250 dilution. […] Sigma Chemical Co., St. Louis, Mo.). In each experiment, membranes were also probed with anti-GAPDH antibody to correct for differences in protein loading.

[3] = test system: cell cycle regulatory proteins in Hep 3B cells; assay: Western blot of cell cycle regulatory proteins; type: cell-based, human; settings: TB 60-150 μM, 15 h
Protocol: as §1

[4] = cited from earlier work
[5] = test system: p53, p21/Cip1 and p27/Kip1 protein in COLO 205 tumor tissues; assay: Immunocytochemical staining of COLO 205 tumor tissues; type: in vivo, nude mouse; settings: TB-treated vs DMSO-treated nude mice

Which “binding between p53 protein and p53 consensus binding site in p21/Cip1 promoter DNA probe” value [1] does the source give for `CN(C/C=C/C#CC(C)(C)C)Cc1cccc2ccccc12` [TB, 1-Naphthalenemethanamine, N-(6,6-dimethyl-2-hepten-4-ynyl)-N-methyl-, (E)-] here?
Its value is “increased the binding”.

What about the “levels of cyclin D3 and cdk4, dose effect” value [2] of the same molecule?
The value was “decreased”.

What about the “levels of p53, p21/Cip1 and p27/Kip1 protein, dose effect” value [2] of the same molecule?
The value was “increased”.

And the “levels of p53 and p21/Cip1 protein, dose effect” value [3]?
The value was “did not change”.

What about the “levels of p27/Kip1 protein, dose effect” value ([3]; dose-dependent) of the same molecule?
The value was “significantly increased”.

And the tissue accumulation ([4]; adipose tissues, keratin-rich tissues (dermis, epidermis, nail) and other organ tissues)?
Its tissue accumulation is “extensively accumulates”.

What about the “tissue concentrations relative to plasma” value ([4]; as early as 1 day after stop of medication) of the same molecule?
Its value is “exceeded that of plasma”.

And the “p53, p21/Cip1 and p27/Kip1 immunoreactivities in tumor tissues” value [5]?
The value was “strongly induced”.
